Reference: ChEMBL document CHEMBL2086319, “From the first selective non-peptide AT(2) receptor agonist to structurally related antagonists” (J Med Chem, 2012)
Activity calls are given as the source filed them. The calls are words filed in the database; no cut-off is given here.

Tests used:
[1] = Displacement of [125I]Ang 2 from rat liver membrane AT1 receptor after 2 hrs by micro-counter
[2] = Displacement of [125I]Ang 2 from pig uterus membrane AT2 receptor after 1.5 hrs by micro-counter; set-up: species or system Sus scrofa
[3] = test system: NG108-15; assay: Induction of neurite outgrowth in mouse/rat NG108-15 cells at 10 nM after 3 days by phase contrast microscopy in presence of PD123,319; assay type: functional, cell-based
[4] = test system: NG108-15; assay: Induction of neurite outgrowth in mouse/rat NG108-15 cells at 10 nM after 3 days by phase contrast microscopy; assay type: functional, cell-based
[5] = test system: NG108-15; assay: Inhibition of Ang 2-induced neurite outgrowth in mouse/rat NG108-15 cells at 10 nM after 3 days by phase contrast microscopy; assay type: functional, cell-based
[6] = test system: NG108-15; assay: Induction of neurite outgrowth in mouse/rat NG108-15 cells at 1 nM after 3 days by phase contrast microscopy in presence of PD123,319; assay type: functional, cell-based
[7] = test system: NG108-15; assay: Effect on neurite outgrowth in mouse/rat NG108-15 cells assessed as morphological changes at 10 uM after 3 days by phase contrast microscopy; assay type: functional, cell-based

| SMILES | Ki [1] | Ki [2] | further results |
| --- | --- | --- | --- |
| CCCCOC(=O)NS(=O)(=O)c1sc(CC(C)C)cc1-c1cccc(CN(C)C(=O)OCC)c1 | > 10000 nM | 45 nM |  |
| CCCCOC(=O)NS(=O)(=O)c1sc(CC(C)C)cc1-c1cccc(Cn2ccnc2CC)c1 | > 10000 nM | 8 nM |  |
| CCCCOC(=O)NS(=O)(=O)c1sc(CC(C)C)cc1-c1cccc(Cn2cnc3cccnc32)c1 | > 10000 nM | 66 nM |  |
| CCCCOC(=O)NS(=O)(=O)c1sc(CC(C)C)cc1-c1cccc(CN2C(=O)CCC2=O)c1 | > 10000 nM | 147 nM |  |
| CCCCOC(=O)NS(=O)(=O)c1sc(CC(C)C)cc1-c1cccc(CN(CC(F)(F)F)C(=O)C2CC2)c1 | > 10000 nM | 163 nM |  |
| CCCCOC(=O)NS(=O)(=O)c1sc(CC(C)C)cc1-c1cccc(Cn2ccnc2Cl)c1 | > 10000 nM | 9.2 nM | Activity [3]: Active; Activity [4]: inactive; inhibition [5]: Active |
| CCCCOC(=O)NS(=O)(=O)c1sc(CC(C)C)cc1-c1cccc(Cn2ccnc2-c2ccccc2)c1 | > 10000 nM | 67 nM |  |
| CCCCOC(=O)NS(=O)(=O)c1sc(CC(C)C)cc1-c1cccc(CN(CC)S(=O)(=O)c2cccs2)c1 | > 10000 nM | 133 nM |  |
| CCCCOC(=O)NS(=O)(=O)c1sc(CC(C)C)cc1-c1cccc(CN(C)C(=O)C(=O)OCC)c1 | > 10000 nM | 1.6 nM | Activity [6]: Active |
| CCCCOC(=O)NS(=O)(=O)c1sc(CC(C)C)cc1-c1cccc(CN(C)C(=O)CCCC)c1 | > 10000 nM | 56 nM |  |
| CCCCOC(=O)NS(=O)(=O)c1sc(CC(C)C)cc1-c1cccc(CN(CC)C(C)=O)c1 | > 10000 nM | 29 nM |  |
| CCCCOC(=O)NS(=O)(=O)c1sc(CC(C)C)cc1-c1cccc(CN(C)C(=O)c2cccs2)c1 | > 10000 nM | 13 nM |  |
| Cc1cc(Cn2cnc3c2C[C@@H](C(=O)O)N(C(=O)C(c2ccccc2)c2ccccc2)C3)ccc1N(C)C |  |  | Activity [7]: inactive |
| CCCCOC(=O)NS(=O)(=O)c1sc(CC(C)C)cc1-c1cccc(CN(Cc2ccccc2)C(=O)CCCC)c1 | > 10000 nM | 35 nM |  |
| CCCCOC(=O)NS(=O)(=O)c1sc(CC(C)C)cc1-c1cccc(Cn2cnc3ccccc32)c1 | > 10000 nM | 32 nM |  |
| CCCCOC(=O)NS(=O)(=O)c1sc(CC(C)C)cc1-c1cccc(CN(CC(F)(F)F)C(C)=O)c1 | > 10000 nM | 72 nM |  |
| CCCCOC(=O)NS(=O)(=O)c1sc(CC(C)C)cc1-c1cccc(CN(Cc2cccnc2)C(C)=O)c1 | > 10000 nM | 83 nM |  |
| CCCCOC(=O)NS(=O)(=O)c1sc(CC(C)C)cc1-c1cccc(Cn2cccn2)c1 | > 10000 nM | 110 nM |  |
| CCCCOC(=O)NS(=O)(=O)c1sc(CC(C)C)cc1-c1cccc(CN(Cc2cccnc2)C(=O)c2ccccc2)c1 | > 10000 nM | 47 nM | inhibition [5]: Active |
| CCCCOC(=O)NS(=O)(=O)c1sc(CC(C)C)cc1-c1cccc(Cn2ccnc2CCCC)c1 | > 10000 nM | 10 nM |  |

| SMILES | Ki [1] | Ki [2] | further results |
| --- | --- | --- | --- |
| CCCCOC(=O)NS(=O)(=O)c1sc(CC(C)C)cc1-c1cccc(CN2CCCC2=O)c1 | > 10000 nM | 224 nM |  |
| CCCCOC(=O)NS(=O)(=O)c1sc(CC(C)C)cc1-c1cccc(CCn2ccnc2)c1 | > 10000 nM | 118 nM |  |
| CCCCOC(=O)NS(=O)(=O)c1sc(CC(C)C)cc1-c1cccc(CN(C)S(C)(=O)=O)c1 | > 10000 nM | > 10000 nM |  |
| CCCCOC(=O)NS(=O)(=O)c1sc(CC(C)C)cc1-c1cccc(Cn2ccc(C(F)(F)F)n2)c1 | > 10000 nM | 233 nM |  |
| CCCCOC(=O)NS(=O)(=O)c1sc(CC(C)C)cc1-c1cccc(Cn2ccnc2C)c1 | > 10000 nM | 29 nM |  |
| CCCCOC(=O)NS(=O)(=O)c1sc(CC(C)C)cc1-c1cccc(CN(C(=O)c2ccccc2)c2ccc(C)cc2)c1 | > 10000 nM | 46 nM |  |
| CCCCOC(=O)NS(=O)(=O)c1sc(CC(C)C)cc1-c1cccc(Cn2ccnc2-c2ccccn2)c1 | > 10000 nM | 28 nM |  |
| CCCCOC(=O)NS(=O)(=O)c1sc(CC(C)C)cc1-c1cccc(CN(C)C(C)=O)c1 | > 10000 nM | 29 nM |  |
| CCCCOC(=O)NS(=O)(=O)c1sc(CC(C)C)cc1-c1cccc(Cn2cnc3ncccc32)c1 | > 10000 nM | 44 nM |  |
| CCCCOC(=O)NS(=O)(=O)c1sc(CC(C)C)cc1-c1cccc(C(=O)Cn2cnc3ccccc32)c1 | > 10000 nM | 20 nM | Activity [3]: Active; Activity [4]: inactive; inhibition [5]: Active |
| CCCCOC(=O)NS(=O)(=O)c1sc(CC(C)C)cc1-c1cccc(CN(Cc2ccccc2)C(C)=O)c1 | > 10000 nM | 79 nM |  |
| CCCCOC(=O)NS(=O)(=O)c1sc(CC(C)C)cc1-c1cccc(CN(C(C)=O)c2ccc(C)cc2)c1 | > 10000 nM | 120 nM |  |
| CCCCOC(=O)NS(=O)(=O)c1sc(CC(C)C)cc1-c1cccc(Cn2ccnc2-c2cccs2)c1 | > 10000 nM | 28 nM |  |
| CCCCOC(=O)NS(=O)(=O)c1sc(CC(C)C)cc1-c1cccc(CN(CC)C(=O)c2cccs2)c1 | > 10000 nM | 2.2 nM |  |
| CCCCOC(=O)NS(=O)(=O)c1sc(CC(C)C)cc1-c1cccc(Cn2ccnc2C(C)=O)c1 | > 10000 nM | 17 nM |  |
| CCCCOC(=O)NS(=O)(=O)c1sc(CC(C)C)cc1-c1cccc(CN(Cc2ccccc2)C(=O)c2cccs2)c1 | > 10000 nM | 670 nM |  |
| CCCCOC(=O)NS(=O)(=O)c1sc(CC(C)C)cc1-c1cccc(CN2C(=O)CN(C)C2=O)c1 | > 10000 nM | 37 nM |  |
| CCCCOC(=O)NS(=O)(=O)c1sc(CC(C)C)cc1-c1cccc(Cn2ccnc2-c2ccsc2)c1 | > 10000 nM | 33 nM |  |
| CCCCOC(=O)NS(=O)(=O)c1sc(CC(C)C)cc1-c1cccc(CN(C)C=O)c1 | > 10000 nM | 55 nM |  |
